“And” between values parts separate entries of the source, which are not always exact repeats. Equal values may be shown once. “Also recorded” adds a separate entry of the source. Where a name gives a salt, the structure may show the parent alone. Read-outs that look alike come from different tables or passages of the source. Each block holds one compound with its values, some of them ahead of it.
What was measured:
[1] = vendor product list; cited from earlier work
[2] = target: DNase, a nuclease isolated from bovine pancreas (Bos taurus, UniProt P00639); conditions: for DNase enzymatic activity: 100 μM EDTA
[3] = for pH of Tris based PCR buffer: room temperature
[4] = target: T1, chemically inactivated Taq DNA polymerase (Thermus aquaticus, UniProt P19821); experiment: Amplification of bisulphite-treated DNA in the presence of EGTA and different magnesium concentrations; format: biochemical; conditions: for Ct / Ct Average: 5 mM EGTA
Description: In the follow-up experiment said primers and said bisulphite-treated DNA were used in amplification reactions wherein the magnesium dependency was analyzed.
The final concentration of EGTA was 5 mM. The HRM master mix was supplemented with 0.1 0.6 mM magnesium.
Two sets of reactions consisting of duplicates were used in the amplification experiment. One set of samples was incubated on ice for 120 min, whereas the other set of samples was incubated at room temperature for 120 min. Subsequently the samples were analyzed using the Rotor-Gene Q 5plex HRM System.

[5] = target: Taq (Thermus aquaticus, UniProt P19821); experiment: Endpoint PCR (HugI, 1.2 kb genomic target) with and without EGTA, agarose gel; format: biochemical; conditions: 5 mM EGTA, 5-10 mM Mg, compared to reactions without EGTA
Description: An amplification experiment was performed using a test system that is known to be prone to produce non-specific side products. A genomic DNA sequence of 1.2 kb was the target sequence. Primers HugA and HugB were used.
Reactions with and without EGTA were performed in parallel. In set A, the magnesium concentration was varied in 1 mM steps, start and end point were 5 and 10 mM respectively. In set B, the start point was 0.5 mM and the end point was 4 mM Mg. The setup is described in Table 2.
The amplification program was as follows (Table 3):
35 cycles were performed.

[6] = pH-dependency of the binding constants of chelating agents; format: physicochemical; conditions: worked out from known pK values from literature (FIG. 1)
Description: Tris buffer is routinely used in PCR buffers. At room temperature the pH of a Tris based PCR buffer is 8.7. […] This means that at 95° C. the pH value is 6.6. In order to select a chelating agent for PCR experiments, the pH-dependency of the binding constants of three different chelating agents, NTA; EDTA and EGTA, was investigated. Known pK values from literature for every chelating agent were used to determine the pH dependency of the complex formation (FIG. 1).

[7] = target: T1, chemically inactivated Taq DNA polymerase; experiment: Amplification of bisulphite-treated DNA in the presence of different EGTA concentrations (residual activity of chemically inactivated Taq, Ct and HRM melting curves); format: biochemical
Description: The following experiments employed a system to detect the formation of primer dimers in a PCR reaction mixture using residual active Taq polymerase molecules. Herein, bisulphite-treated DNA is used as a template. As a consequence of the bisulphite treatment, which entails the chemical modification of non-methylated cytosines to uracil), said template only consists of three bases. Since bisulphite treatment only works when using single stranded DNA, the majority of DNA after completion of said bisulphite treatment is single stranded. Primers that are used for amplification of such DNA sequences are characterized by reduced complexity since they only consist of three bases.
Genomic DNA was propagated using the Qiagen REPLI g Midi Kit according to the manufacturer's protocol. Subsequently, 1 μg of said genomic DNA was used in 10 independent reactions wherein the DNA was subjected to bisulphite treatment using the EpiTect Bisulfite Kit followed by purification. The resulting DNA of each reaction was pooled and used in the subsequent amplification reactions.
The final EGTA concentration was between 0.25 and 10 mM.
One set of samples consisting of two reactions was incubated on ice for 120 min, whereas the other set of samples also consisting of two reactions was incubated at room temperature for 120 min. Subsequently both sets of samples were analyzed using the Rotor-Gene Q 5plex HRM System.

[8] = 0 mM MgCl2 added, on ice 120 min
[9] = 0 mM MgCl2 added, room temperature 120 min
[10] = 0.1 mM MgCl2, room temperature 120 min
[11] = 0.2 mM MgCl2, room temperature 120 min
[12] = 0.3 mM MgCl2, room temperature 120 min
[13] = 0.4 mM MgCl2, room temperature 120 min
[14] = 0.5 mM MgCl2, room temperature 120 min
[15] = 0.6 mM MgCl2, room temperature 120 min
[16] = 0.25 mM EGTA, room temperature 120 min
[17] = 0.5 mM EGTA, room temperature 120 min
[18] = 0.75 mM EGTA, room temperature 120 min
[19] = 1 mM EGTA, room temperature 120 min
[20] = 1.5 mM EGTA, room temperature 120 min
[21] = 2 mM EGTA, room temperature 120 min
[22] = 4 mM EGTA, room temperature 120 min
[23] = 10 mM EGTA, room temperature 120 min

DNase, a nuclease isolated from bovine pancreas, sequence (P00639 23-282): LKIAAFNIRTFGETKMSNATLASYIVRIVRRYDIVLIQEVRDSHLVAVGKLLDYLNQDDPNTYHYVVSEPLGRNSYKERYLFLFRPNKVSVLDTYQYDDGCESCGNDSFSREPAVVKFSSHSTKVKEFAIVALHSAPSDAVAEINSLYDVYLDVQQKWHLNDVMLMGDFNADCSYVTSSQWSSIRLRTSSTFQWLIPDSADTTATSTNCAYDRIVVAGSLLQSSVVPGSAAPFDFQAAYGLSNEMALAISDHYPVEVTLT
T1 sequence (P19821 whole entry): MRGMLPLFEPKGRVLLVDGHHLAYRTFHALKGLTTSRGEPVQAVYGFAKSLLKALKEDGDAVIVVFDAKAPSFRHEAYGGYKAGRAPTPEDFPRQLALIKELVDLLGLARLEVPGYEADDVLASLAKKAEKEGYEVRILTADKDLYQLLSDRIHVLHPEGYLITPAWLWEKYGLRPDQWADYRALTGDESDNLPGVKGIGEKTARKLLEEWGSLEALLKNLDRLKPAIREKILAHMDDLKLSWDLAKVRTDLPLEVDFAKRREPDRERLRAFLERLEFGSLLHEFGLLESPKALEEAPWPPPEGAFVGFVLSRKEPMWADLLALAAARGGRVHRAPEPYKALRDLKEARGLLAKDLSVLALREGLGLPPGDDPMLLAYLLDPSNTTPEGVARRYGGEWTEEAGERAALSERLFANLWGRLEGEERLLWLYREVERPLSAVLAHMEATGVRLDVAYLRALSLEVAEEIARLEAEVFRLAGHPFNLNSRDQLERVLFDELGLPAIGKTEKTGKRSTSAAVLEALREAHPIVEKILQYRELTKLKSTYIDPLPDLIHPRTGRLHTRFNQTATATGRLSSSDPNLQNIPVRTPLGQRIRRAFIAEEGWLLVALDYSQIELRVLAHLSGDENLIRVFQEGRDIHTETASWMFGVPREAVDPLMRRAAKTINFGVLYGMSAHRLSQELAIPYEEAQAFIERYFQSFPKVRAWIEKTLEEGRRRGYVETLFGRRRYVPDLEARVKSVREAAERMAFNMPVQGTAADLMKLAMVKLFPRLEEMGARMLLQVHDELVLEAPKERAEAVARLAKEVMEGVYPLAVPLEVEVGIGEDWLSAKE
Taq, sequence (P19821 whole entry): as above

Compound: O=S(=O)(O)CCN1CCN(CCO)CC1 [Buffer 8, HEPES sodium salt]
pKa [1]: 7.50

DNase enzymatic activity ([2]; 42° C.): restoring enzymatic activity | DNase enzymatic activity ([2]; on ice, 1, 0.5, 0.1 U DNase): largely reduced enzymatic activity
Compound: O=C(O)CN(CCN(CC(=O)O)CC(=O)O)CC(=O)O [EDTA, ethylene di amine tetra acetic acid]

Compound: OCC(CO)(CO)NCCCNC(CO)(CO)CO [Buffer 4, BIS-TRIS propane]
pKa [1]: 6.80

Compound: O=S(=O)(O)CCN1CCN(CCO)CC1 [Buffer 7, HEPES]
pKa [1]: 7.50

Compound: NC(=O)CNCCS(=O)(=O)O [Buffer 1, ACES]
pKa [1]: 6.80

Compound: O=S(=O)(O)CCNC(CO)(CO)CO [Buffer 24, TES]
pKa [1]: 7.50

Compound: O=S(=O)(O)CCCN1CCN(CCO)CC1 [Buffer 5, EPPS]
pKa [1]: 8.00

Compound: NC(CO)(CO)CO [Tris]
pH of Tris buffer ([3]; 95° C.): 6.6 | pH of Tris based PCR buffer [3]: 8.7 | pH of Tris based PCR buffer ([3]; listed as Tris buffer): around 8.7

Compound: O=S(=O)(O)CCN(CCO)CCO [Buffer 2, BES]
pKa [1]: 7.10

Compound: O=S(=O)(O)CCCNC(CO)(CO)CO [Buffer 22, TAPS]
pKa [1]: 8.40

Compound: O=S(=O)(O)CCN1CCN(CCS(=O)(=O)O)CC1 [Buffer 17, PIPES]
pKa [1]: 6.80

Compound: O=S(=O)([O-])CCCNC(CO)(CO)CO.[Na+] [Buffer 23, TAPS sodium salt]
pKa [1]: 8.40

Compound: O=C(O)CN(CCOCCOCCN(CC(=O)O)CC(=O)O)CC(=O)O [EGTA, ethylene glycol bis(amino ethyl) N, N′-tetra acetic acid]
Ct [4, 8]: 28.74 and 28.89 | Ct Average [4, 8]: 28.82 | Ct [4, 9]: 28.86 and 28.67 | Ct Average [4, 9]: 28.77 | Ct ([4]; 0.1 mM MgCl2, on ice 120 min): 27.82 and 27.79 | Ct Average ([4]; 0.1 mM MgCl2, on ice 120 min): 27.81 | Ct [4, 10]: 27.53 and 27.71 | Ct Average [4, 10]: 27.62 | Ct ([4]; 0.2 mM MgCl2, on ice 120 min): 26.85 and 27.39 | Ct Average ([4]; 0.2 mM MgCl2, on ice 120 min): 27.12 | Ct [4, 11]: 26.69 and 27.27 | Ct Average [4, 11]: 26.98 | Ct ([4]; 0.3 mM MgCl2, on ice 120 min): 26.25 and 26.51 | Ct Average ([4]; 0.3 mM MgCl2, on ice 120 min): 26.38 | Ct [4, 12]: 26.14 and 26.64 | Ct Average [4, 12]: 26.39 | Ct ([4]; 0.4 mM MgCl2, on ice 120 min): 26.01 and 26.14 | Ct Average ([4]; 0.4 mM MgCl2, on ice 120 min): 26.08 | Ct [4, 13]: 26.06 and 26.24 | Ct Average [4, 13]: 26.15 | Ct ([4]; 0.5 mM MgCl2, on ice 120 min): 25.81 and 25.89 | Ct Average ([4]; 0.5 mM MgCl2, on ice 120 min): 25.85 | Ct [4, 14]: 25.82 and 25.86 | Ct Average [4, 14]: 25.84 | Ct ([4]; 0.6 mM MgCl2, on ice 120 min): 25.61 and 25.56 | Ct Average ([4]; 0.6 mM MgCl2, on ice 120 min): 25.59 | Ct [4, 15]: 25.55 and 25.49 | Ct Average [4, 15]: 25.52 | specificity of amplification ([4]; EGTA up to a final concentration of 5 mM): increased specificity | specificity of PCR (side products on agarose gel) [5]: more specific as of having less side products; also recorded: results in specific PCR product | DNase activity ([2]; 100 μM EGTA, 42° C.): largely restored DNase activity | DNA degradation by DNase ([2]; 100 μM EGTA, on ice, 0.01, 0.1 and 1 U DNase, 5 and 15 min): almost complete inhibition of degradation | DNA degradation by DNase ([2]; 100 μM EGTA, on ice, 1 U DNase for 15 min, compared to the sample without EGTA): degradation is significantly reduced | correlation between pH value and binding constant [6]: strong correlation between pH value and binding constant | Ct ([7]; 0.25 mM EGTA, on ice 120 min): 25.34 and 25.51 | Ct Average ([7]; 0.25 mM EGTA, on ice 120 min): 25.43 | Ct [7, 16]: 25.2 and 25.42 | Ct Average [7, 16]: 25.31 | Ct ([7]; 0.5 mM EGTA, on ice 120 min): 25.53 and 25.62 | Ct Average ([7]; 0.5 mM EGTA, on ice 120 min): 25.58 | Ct [7, 17]: 25.55 and 25.47 | Ct Average [7, 17]: 25.51 | Ct ([7]; 0.75 mM EGTA, on ice 120 min): 25.78 and 25.88 | Ct Average ([7]; 0.75 mM EGTA, on ice 120 min): 25.83 | Ct [7, 18]: 25.91 and 25.8 | Ct Average [7, 18]: 25.86 | Ct ([7]; 1 mM EGTA, on ice 120 min): 26.59 and 26.61 | Ct Average ([7]; 1 mM EGTA, on ice 120 min): 26.55 | Ct [7, 19]: 26.47 and 26.5 | Ct Average [7, 19]: 26.49 | Ct ([7]; 1.5 mM EGTA, on ice 120 min): 28.17 and 28.21 | Ct Average ([7]; 1.5 mM EGTA, on ice 120 min): 28.19 | Ct [7, 20]: 27.76 and 27.88 | Ct Average [7, 20]: 27.82 | Ct ([7]; 2 mM EGTA, on ice 120 min): 30.16 and 28.53 | Ct Average ([7]; 2 mM EGTA, on ice 120 min): 29.35 | Ct [7, 21]: 29.9 and 29.71 | Ct Average [7, 21]: 29.81 | Ct ([7]; 4 mM EGTA, on ice 120 min): 38.37 and 38.14 | Ct Average ([7]; 4 mM EGTA, on ice 120 min): 38.26 | Ct [7, 22]: 37.32 and 37.02 | Ct Average [7, 22]: 37.13 | Ct [7, 23]: 35.18 and 34 | Ct Average [7, 23]: 34.59 | success of amplification ([7]; EGTA concentrations exceeded 2 mM): successful amplification was prevented | specificity of amplification and effect on Ct ([7]; EGTA up to a final concentration of 0.75 mM): increase of specificity without affecting the Ct values

Reference: US11519025B2, “Cation chelator hot start” (priority 2014, dated 2022)
